Results: PubChem BioAssay (NCI)
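All cell lines were grown in 96-well plates and treated with compound for 48 hours. GI50 = concentration required for 50% inhibition of growth. TGI denotes the concentration required for complete inhibition of growth.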

Columns and labels:
Test in all cases: growth of human tumour cells (NCI), 48 h
[1] = test system: 786-0 renal
[2] = test system: A498 renal
[3] = test system: A549 NSCLC
[4] = test system: ACHN renal
[5] = test system: BT-549 breast
[6] = test system: CAKI-1 renal
[7] = test system: CCRF-CEM leukemia
[8] = test system: COLO 205 colon
[9] = test system: DU-145 prostate
[10] = test system: EKVX NSCLC
[11] = test system: HCC-2998 colon
[12] = test system: HCT-116 colon
[13] = test system: HCT-15 colon
[14] = test system: HL-60(TB) leukemia
[15] = test system: HOP-62 NSCLC
[16] = test system: HOP-92 NSCLC
[17] = test system: HS 578T breast
[18] = test system: HT29 colon
[19] = test system: IGROV1 ovarian
[20] = test system: K-562 leukemia
[21] = test system: KM12 colon
[22] = test system: LOX IMVI melanoma
[23] = test system: M14 melanoma
[24] = test system: MALME-3M melanoma
[25] = test system: MCF7 breast
[26] = test system: MDA-MB-231 breast
[27] = test system: MDA-MB-435
[28] = test system: MOLT-4 leukemia
[29] = test system: NCI-H226 lung
[30] = test system: NCI-H23 lung
[31] = test system: NCI-H460 lung
[32] = test system: NCI-H522 lung
[33] = test system: NCI/ADR-RES ovarian
[34] = test system: OVCAR-3 ovarian
[35] = test system: OVCAR-4 ovarian
[36] = test system: OVCAR-5 ovarian
[37] = test system: OVCAR-8 ovarian
[38] = test system: PC-3 prostate
[39] = test system: RPMI-8226 leukemia
[40] = test system: RXF 393 renal
[41] = test system: SF-268 CNS
[42] = test system: SF-295 CNS
[43] = test system: SF-539 CNS
[44] = test system: SK-MEL-2 melanoma
[45] = test system: SK-MEL-28 melanoma
[46] = test system: SK-MEL-5 melanoma
[47] = test system: SK-OV-3 ovarian
[48] = test system: SN12C renal
[49] = test system: SNB-19 CNS
[50] = test system: SNB-75 CNS
[51] = test system: SR leukemia
[52] = test system: SW-620 colon
[53] = test system: T-47D breast
[54] = test system: TK-10 renal
[55] = test system: U251 CNS
[56] = test system: UACC-257 melanoma
[57] = test system: UACC-62 melanoma
[58] = test system: UO-31 renal

COc1ccc(C/C(C)=C(\c2ccc(OCCN3CCOCC3)cc2)c2ccc(OC(=O)Cc3ccccc3)cc2)cc1
GI50 [1]: 510 nM | TGI [1]: 994 nM | GI50 [2]: 462 nM | TGI [2]: 971 nM | GI50 [3]: 1020 nM | TGI [3]: 11.2 µM | GI50 [4]: 990 nM | TGI [4]: 3.38 µM | GI50 [5]: 502 nM | TGI [5]: 996 nM | GI50 [6]: 729 nM | TGI [6]: 2130 nM | GI50 [7]: 813 nM | TGI [7]: 8.27 µM | GI50 [8]: 614 nM | TGI [8]: 1540 nM | GI50 [9]: 1330 nM | TGI [9]: 20.4 µM | GI50 [10]: 851 nM | TGI [10]: 3.49 µM | GI50 [11]: 668 nM | TGI [11]: 1490 nM | GI50 [12]: 496 nM | TGI [12]: 989 nM | GI50 [13]: 566 nM | TGI [13]: 1500 nM | GI50 [14]: 553 nM | TGI [14]: 1260 nM | GI50 [15]: 621 nM | TGI [15]: 1170 nM | GI50 [16]: 280 nM | TGI [16]: 901 nM | GI50 [17]: 658 nM | TGI [17]: 1670 nM | GI50 [18]: 288 nM | TGI [18]: 716 nM | GI50 [19]: 1130 nM | TGI [19]: 5.03 µM | GI50 [20]: 456 nM | TGI [20]: 1660 nM | GI50 [21]: 1140 nM | TGI [21]: 3.37 µM | GI50 [22]: 560 nM | TGI [22]: 1030 nM | GI50 [23]: 590 nM | TGI [23]: 1190 nM | GI50 [24]: 531 nM | TGI [24]: 1030 nM | GI50 [25]: 574 nM | TGI [25]: 1540 nM | GI50 [26]: 583 nM | TGI [26]: 1260 nM | GI50 [27]: 632 nM | TGI [27]: 1340 nM | GI50 [28]: 593 nM | TGI [28]: 1910 nM | GI50 [29]: 691 nM | TGI [29]: 2380 nM | GI50 [30]: 823 nM | TGI [30]: 3.3 µM | GI50 [31]: 713 nM | TGI [31]: 1530 nM | GI50 [32]: 564 nM | TGI [32]: 1080 nM | GI50 [33]: 961 nM | TGI [33]: 12.5 µM | GI50 [34]: 766 nM | TGI [34]: 1660 nM | GI50 [35]: 1030 nM | TGI [35]: 10.2 µM | GI50 [36]: 951 nM | TGI [36]: 10.7 µM | GI50 [37]: 1070 nM | TGI [37]: 11.3 µM | GI50 [38]: 747 nM | TGI [38]: 2970 nM | GI50 [39]: 531 nM | TGI [39]: 1310 nM | GI50 [40]: 438 nM | TGI [40]: 883 nM | GI50 [41]: 960 nM | TGI [41]: 12.8 µM | GI50 [42]: 580 nM | TGI [42]: 1120 nM | GI50 [43]: 513 nM | TGI [43]: 977 nM | GI50 [44]: 657 nM | TGI [44]: 1250 nM | GI50 [45]: 555 nM | TGI [45]: 1060 nM | GI50 [46]: 485 nM | TGI [46]: 930 nM | GI50 [47]: 978 nM | TGI [47]: 4.45 µM | GI50 [48]: 612 nM | TGI [48]: 1440 nM | GI50 [49]: 1300 nM | TGI [49]: 8.34 µM | GI50 [50]: 692 nM | TGI [50]: 4.47 µM | GI50 [51]: 648 nM | TGI [51]: 1730 nM | GI50 [52]: 742 nM | TGI [52]: 1800 nM | GI50 [53]: 483 nM | TGI [53]: 1280 nM | GI50 [54]: 778 nM | TGI [54]: 2030 nM | GI50 [55]: 501 nM | TGI [55]: 965 nM | GI50 [56]: 578 nM | TGI [56]: 1090 nM | GI50 [57]: 527 nM | TGI [57]: 1060 nM | GI50 [58]: 422 nM | TGI [58]: 952 nM
